Data set [1] in a line: Bovine liver microsome stability. It counts as in vitro ADME. Conditions: intrinsic clearance. The protocol:
2.2 Microsomal stability studies […]
(b) Bovine liver microsome stability. Test compounds (0.5 µM) were incubated with 0.5 mg/mL bovine liver microsomes (Xenotech LLC TM) in 50 mM potassium phosphate buffer, pH7.4 and the reaction initiated upon addition of excess NADPH (8 mg/mL in 50 mM potassium phosphate buffer, pH7.4).
Aliquots (50 µL) of the incubation mixture were taken at time zero, 3, 6, 9, 15 and 30 min then mixed with acetonitrile (100 µL) to stop the reaction. An internal standard was added to all samples, prior to centrifugation (10 min, 1,665 g, RT) to sediment precipitated protein. Reaction plates were then sealed prior to UPLCMSMS analysis using a Quattro Premier XE (Waters corporation, USA).
XLfit (IDBS, UK) was used to calculate the exponential decay and consequently the rate constant (k) from the ratio of peak area of test compound to internal standard at each timepoint. The rate of intrinsic clearance (CLi) of each test compound was then calculated using the following […]
CLi(mL/min/g liver) = k x V x microsomal protein yield
Where V (mL/mg protein) is the incubation volume/ mg protein added and microsomal protein yield is taken as 52.5 mg protein/ g of liver. Verapamil (0.5 µM) was used as a positive control to confirm acceptable assay performance. […]
A general note: Liver microsomes are vesicles of endoplasmic reticulum, rich in cytochrome P450 enzymes.

The test system of the next data set is T. vivax. Put plainly: Ex vivo drug sensitivity assay, T. vivax (STIB 719/ILRAD 560). Conditions: Trypanosoma vivax. It counts as cell-based. The protocol: Test compounds were resuspended to a final concentration of 10 mg/mL in DMSO. […]
1.3 Ex vivo drug sensitivity assays - Trypanosoma vivax
Since T. vivax cannot be cultured axenically, BSF trypanosomes were harvested from an infected mouse with high parasitemia via cardiac puncture and used directly in ex vivo assays. EC50 values were determined against T, vivax (STIB 719/ ILRAD 560) as previously described3, with minor modifications. Briefly, cell densities were determined using a Neubauer chamber and then diluted to a seeding density of 4 x 105 trypanosomes / mL. BSF trypanosomes were cultured in HMI-9 (IMDM) media containing 20% (v/v) bovine serum. Assay plates were incubated at 37 °C with 5 % CO2, for a total of 45 h prior to addition 10 µL of Resazurin (12.5 mg in 100 mL phosphate buffered saline, Aldrich) into each well, followed by a further 3 h incubation. Absorbance was read using a SpectraMax (Gemini XS) fluorescence reader at an excitation wavelength of 536 nm and an emission wavelength of 588 nm. EC50 values were determined using SOFTmax Pro 5.2 analysis […]
software. […]

In a further data set the test system is T. congolense. Put plainly: In vitro drug sensitivity assay, T. congolense (IL3000). It is filed as cell-based. Conditions: Trypanosoma congolense; IL3000 strain. Here is the method:
1.2 In vitro drug sensitivity assays - Trypanosoma congolense
EC50 values for test compounds against T. congolense (IL3000 strain) were conducted as previously described3 with minor modifications.4 Briefly, trypanosome cell densities were determined using a CASY cell counter (Schärfe) and diluted to a seeding density of 2 x 105 trypanosomes/mL. BSF trypanosomes were grown in HMI-9 (IMDM) media supplemented with 20% (v/v) bovine serum.1 Test compounds were resuspended to a final concentration of 10 mg/mL in DMSO. Assays plates were incubated at 34 °C with 5 % CO2, for a total of 69 h, prior to addition of 10 µL of Resazurin (12.5 mg in 100 mL phosphate buffered saline, Aldrich) into each well, followed by a further 3 h incubation. Absorbance was read using a SpectraMax (Gemini XS) fluorescence reader at an excitation wavelength of 536 nm and an emission wavelength of 588 nm. EC50 values were determined using SOFTmax Pro 5.2 analysis software. All experiments were conducted with technical duplicates, and at least three biological replicates. […]

The nature of data set [2]: Aqueous kinetic solubility by laser nephelometry. It counts as physicochemical. Conditions: MilliQ water with 2.5% DMSO, range 250-12 µM, read-out: Sol (kinetic solubility). Here is the method: 2. Drug metabolism and pharmacokinetics
The aqueous solubility of test compounds was measured using laser nephelometry. Compounds were subject to serial dilution from 10 mM to 0.5 mM in DMSO. Aliquot were then mixed with MilliQ water to obtain an aqueous dilution plate with a final concentration range of 250 – 12 µM. The final DMSO concentration in these plates was 2.5%. Triplicate aliquots were transferred to a flat-bottomed polystyrene plate which was immediately read on a NEPHELOstar nephelometer (BMG Lab Technologies). The laser scatter caused by insoluble particulates (relative nephelometry units, RNU) was plotted against compound concentration using a segmental regression fit, with the point of inflection being quoted as the compound’s aqueous solubility (µM).
Solubility of compound 1 was measured by a different method. Here, compound 1 was dissolved in DMSO to give a 10 mM solution and solubility test samples prepared by adding a volume (5 µL) of this stock solution to phosphate buffered saline, pH 7.4 (195 µL, Sigma-Aldrich). This

For another data set, the system named is L6 cells. Put plainly: Cytotoxicity assay, rat skeletal myoblasts (L6). It counts as cell-based. Here is the method: 1.4 Cytotoxicity assays – Rat skeletal myoblasts (L6)
The cytotoxicity of test compounds was evaluated using a rat skeletal myoblast (L6) cell line, as previously described3, but with minor modifications. Cells were grown in RPMI media supplemented with 10% (v/v) fetal calf serum. L6 cells at a seeding density of 2 x 10^4 cells/mL were incubated in microtiter plates overnight at 37 °C and 5 % CO2 until adherent. The following day, test compounds were added to the plates (3-fold serial dilutions), prior to incubation for 69 h. Following incubation, 10 µL of Resazurin (12.5 mg in 100 mL phosphate buffered saline, Aldrich) was added to each well and the plates were incubated for a further 3 h. The plates were read using a SpectraMax (Gemini XS) fluorescence reader at an excitation wavelength of 536 nm and an emission wavelength of 588 nm. EC50 values were determined using SOFTmax Pro 5.2 analysis software. All experiments were conducted as technical replicates, with at least three biological replicates. […]

Structures are written as SMILES. pEC50: −log10 of the molar value. Some results are limits rather than exact numbers.

The results in this text go back to article PMC9014415, “Repositioning of a Diaminothiazole Series Confirmed to Target the Cyclin-Dependent Kinase CRK12 for Use in the Treatment of African Animal Trypanosomiasis” (Journal of Medicinal Chemistry, 2022).

As usually defined, the pEC50 is −log10 of the EC50, conventionally taken in molar units. The low end stands for a high EC50, the high end for a low EC50. In general, kinetic solubility refers to the concentration staying in solution when a stock, usually in DMSO, is diluted into the medium. Consider `CC(C)CS(=O)(=O)N[C@H]1CC[C@H](Nc2nc(N)c(C(=O)c3c(Cl)cc(CN(C)C)cc3Cl)s2)CC1.Cl` [Compound 11, N-((trans)-4-((4-Amino-5-(4-(dimethylaminomethyl)-2,6-dichlorobenzoyl)thiazol-2-yl)amino)cyclohexyl)-2-methylpropane-1-sulfonamide Hydrochloride], for which, in data set [1], the “Bovine Microsome Cli (BLM: bovine microsomal clearance)” value is 7.1 mL/min/g. Besides, the results for the pEC50 in the data set with T. vivax, in the data set on T. congolense and with L6 cells were 10.30, 9.23 and 5.37, respectively. The solubility (kinetic) in data set [2] was above 250 µM.
